The first test addresses T1, glucosylceramide synthase (Homo sapiens, UniProt Q16739).
T1 construct: made in house; host or cells: Expi293F cells (transient expression, pcDNA3.3-TOPO vector); microsome fraction used as enzyme source
T1 sequence (Q16739 1-394): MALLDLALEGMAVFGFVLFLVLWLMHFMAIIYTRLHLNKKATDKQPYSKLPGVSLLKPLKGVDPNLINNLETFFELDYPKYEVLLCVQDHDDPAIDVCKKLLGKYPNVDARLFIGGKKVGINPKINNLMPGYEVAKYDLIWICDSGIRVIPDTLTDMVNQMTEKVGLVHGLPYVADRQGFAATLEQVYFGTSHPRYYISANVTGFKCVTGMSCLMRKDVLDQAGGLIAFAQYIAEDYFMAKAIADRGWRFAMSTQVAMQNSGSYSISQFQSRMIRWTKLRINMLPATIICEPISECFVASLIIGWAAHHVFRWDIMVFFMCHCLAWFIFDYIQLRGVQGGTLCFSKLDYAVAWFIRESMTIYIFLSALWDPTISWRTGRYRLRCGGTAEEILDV
Nature of the test: Glucosylceramide synthase (GCS) enzyme assay, microsome fraction, C8 glucosylceramide quantified by Rapidfire MS/MS. It is filed as biochemical. Conditions: test compound 10 μM; 1.7 μM UDP-glucose, 3 μM C8 ceramide; room temperature 60 min. In short, it runs like this:
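Test compound, 10 μM final, was run against human GCS from transfected Expi293F microsome fractions, using substrate solution of 6 μM C8 ceramide (in DOPC liposomes) plus 3.4 μM UDP-glucose, pH 7.5 Tris buffer, 60 min, room temperature. Product C8 glucosylceramide measured by Rapidfire MS/MS against an internal standard, % inhibition referenced to no-enzyme and DMSO wells.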
In the case of `Cc1cncc(OCC(F)(F)F)c1-c1nccc2c1CN(c1ccc(OC(F)F)cc1)C2=O` [Example 198, 2-[4-(difluoromethoxy)phenyl]-4-[3-methyl-5-(2,2,2-trifluoroethoxy)pyridin-4-yl]-2,3-dihydro-1H-pyrrolo[3,4-c]pyridin-1-one], the “GCS enzyme inhibitory rate at 10 μM (%) (% of control)” value is 99%.

Staying with this test, now noted: test compound 10 μM; 1.7 μM UDP-glucose, 3 μM C8 ceramide; room temperature 60 min; read-out: GCS enzyme inhibitory rate at 10 μM (%) (% of control).
`O=C1c2ccnc(-c3ccccc3OCC(F)(F)F)c2CN1c1ccc(O[C@H]2CCOC2)cc1` [Example 188, 2-(4-{[(3S)-oxolan-3-yl]oxy}phenyl)-4-[2-(2,2,2-trifluoroethoxy)phenyl]-2,3-dihydro-1H-pyrrolo[3,4-c]pyridin-1-one]: the inhibition at 10 µM turned out to be 100%. Same read-out and setting: to `CCC(=O)c1ccc(N2Cc3c(ccnc3-c3ccc(F)cc3OCC(F)(F)F)C2=O)cc1` [Example 189, 4-[4-fluoro-2-(2,2,2-trifluoroethoxy)phenyl]-2-(4-propanoylphenyl)-2,3-dihydro-1H-pyrrolo[3,4-c]pyridin-1-one] belongs 94%; to `CCC(=O)c1ccc(N2Cc3c(ccnc3-c3ccccc3OCC(F)(F)F)C2=O)cc1` [Example 190, 2-(4-propanoylphenyl)-4-[2-(2,2,2-trifluoroethoxy)phenyl]-2,3-dihydro-1H-pyrrolo[3,4-c]pyridin-1-one], 98%. Same read-out and setting: in the case of `O=C1c2ccnc(-c3ccccc3OCC(F)(F)F)c2CN1c1ccc(C2(O)CCC2)cc1` [Example 191, 2-[4-(1-hydroxycyclobutyl)phenyl]-4-[2-(2,2,2-trifluoroethoxy)phenyl]-2,3-dihydro-1H-pyrrolo[3,4-c]pyridin-1-one] it was 100%; in that of `CC(C)(O)c1ccc(N2Cc3c(ncnc3-c3ccc(F)cc3OCC(F)(F)F)C2=O)cc1` [Example 192, 4-[4-fluoro-2-(2,2,2-trifluoroethoxy)phenyl]-6-[4-(2-hydroxypropan-2-yl)phenyl]-5,6-dihydro-7H-pyrrolo[3,4-d]pyrimidin-7-one], 88%. Still for that read-out and setting: in the case of `Fc1ccc(N2Cc3cnn(-c4ccccc4OCC(F)(F)F)c3C2)cc1` [Example 193, 5-(4-fluorophenyl)-1-[2-(2,2,2-trifluoroethoxy)phenyl]-1,4,5,6-tetrahydropyrrolo[3,4-c]pyrazole] it was 98%; in that of `O=C1c2ccnc(-c3ccc(F)cc3OCC(F)(F)F)c2CN1c1ccc(OCC2(F)COC2)cc1` [Example 194, 2-{4-[(3-fluorooxetan-3-yl)methoxy]phenyl}-4-[4-fluoro-2-(2,2,2-trifluoroethoxy)phenyl]-2,3-dihydro-1H-pyrrolo[3,4-c]pyridin-1-one], 98%; in that of `CC(C)(O)COc1ccc(N2Cc3c(ccnc3-c3ccccc3OCC(F)(F)F)C2=O)cc1` [Example 195, 2-[4-(2-hydroxy-2-methylpropoxy)phenyl]-4-[2-(2,2,2-trifluoroethoxy)phenyl]-2,3-dihydro-1H-pyrrolo[3,4-c]pyridin-1-one], 100%. With `Cn1cc2c(c(-c3ccc(F)cc3OCC(F)(F)F)c1=O)CN(c1ccc(OC(F)F)cc1)C2=O` [Example 196, 2-[4-(difluoromethoxy)phenyl]-7-[4-fluoro-2-(2,2,2-trifluoroethoxy)phenyl]-5-methyl-1H-pyrrolo[3,4-c]pyridine-3,6(2H,5H)-dione], the inhibition at 10 µM was 100%. With `CC(C)(O)c1ccc(N2Cc3c(ccnc3-c3ccc(F)cc3OCC(F)(F)F)C2=O)cn1` [Example 197, 4-[4-fluoro-2-(2,2,2-trifluoroethoxy)phenyl]-2-[6-(2-hydroxypropan-2-yl)pyridin-3-yl]-2,3-dihydro-1H-pyrrolo[3,4-c]pyridin-1-one], the inhibition at 10 µM was determined as 88%. Regarding `O=C1c2ccnc(-c3ccc(F)cc3OCC(F)(F)F)c2CN1c1ccc(C2(O)COC2)cn1` [Example 199, 4-[4-fluoro-2-(2,2,2-trifluoroethoxy)phenyl]-2-[5-(3-hydroxyoxetan-3-yl)pyridin-2-yl]-2,3-dihydro-1H-pyrrolo[3,4-c]pyridin-1-one], the inhibition at 10 µM turned out to be 91%.

As for `CC(C)(O)c1ccc(N2Cc3c(ncnc3-c3ccccc3OCC(F)(F)F)C2=O)cc1` [Example 200, 6-[4-(2-hydroxypropan-2-yl)phenyl]-4-[2-(2,2,2-trifluoroethoxy)phenyl]-5,6-dihydro-7H-pyrrolo[3,4-d]pyrimidin-7-one], the inhibition at 10 µM is 95%. On to `Cc1cccc(OCC(F)(F)F)c1-c1nccc2c1CN(c1ccc(S(=O)(=O)C(F)F)cc1)C2=O` [Example 201, 2-[4-(difluoromethanesulfonyl)phenyl]-4-[2-methyl-6-(2,2,2-trifluoroethoxy)phenyl]-2,3-dihydro-1H-pyrrolo[3,4-c]pyridin-1-one], for which the inhibition at 10 µM was 99%. Same read-out and setting: to `O=C1c2ccnc(-c3ccc(F)cc3OCC(F)(F)F)c2CN1c1cnn(CC2(F)COC2)c1` [Example 202, 2-{1-[(3-fluorooxetan-3-yl)methyl]-1H-pyrazol-4-yl}-4-[4-fluoro-2-(2,2,2-trifluoroethoxy)phenyl]-2,3-dihydro-1H-pyrrolo[3,4-c]pyridin-1-one] belongs 95%; to `O=C1c2ccnc(-c3ccccc3OCC(F)(F)F)c2CN1c1ccc(C2(O)CCC2)nc1` [Example 203, 2-[6-(1-hydroxycyclobutyl)pyridin-3-yl]-4-[2-(2,2,2-trifluoroethoxy)phenyl]-2,3-dihydro-1H-pyrrolo[3,4-c]pyridin-1-one], 98%. On to `CC1(Oc2ccc(N3Cc4c(ccnc4-c4ccccc4OCC(F)(F)F)C3=O)cn2)COC1` [Example 204, 2-{6-[(3-methyloxetan-3-yl)oxy]pyridin-3-yl}-4-[2-(2,2,2-trifluoroethoxy)phenyl]-2,3-dihydro-1H-pyrrolo[3,4-c]pyridin-1-one], for which the inhibition at 10 µM stood at 97%.

As to `Cn1nc(-c2ccccc2OCC(F)(F)F)c2c1CN(c1ccc(F)cc1)C2` [Example 205, 5-(4-fluorophenyl)-1-methyl-3-[2-(2,2,2-trifluoroethoxy)phenyl]-1,4,5,6-tetrahydropyrrolo[3,4-c]pyrazole], the inhibition at 10 µM turned out to be 83%.

On to `Cn1nc2c(c1-c1ccccc1OCC(F)(F)F)CN(c1ccc(F)cc1)C2` [Example 206, 5-(4-fluorophenyl)-2-methyl-3-[2-(2,2,2-trifluoroethoxy)phenyl]-2,4,5,6-tetrahydropyrrolo[3,4-c]pyrazole], for which the inhibition at 10 µM worked out at 66%. Turning to `CS(=O)(=O)c1ccc(N2Cc3cnn(-c4ccccc4OCC(F)(F)F)c3C2)cc1` [Example 207, 5-[4-(methanesulfonyl)phenyl]-1-[2-(2,2,2-trifluoroethoxy)phenyl]-1,4,5,6-tetrahydropyrrolo[3,4-c]pyrazole], the inhibition at 10 µM worked out at 99%. `O=C1c2ccnc(-c3ccc(F)cc3OCC(F)(F)F)c2CN1c1ccc(C2(O)CCOCC2)cc1` [Example 208, 4-[4-fluoro-2-(2,2,2-trifluoroethoxy)phenyl]-2-[4-(4-hydroxyoxatan-4-yl)phenyl]-2,3-dihydro-1H-pyrrolo[3,4-c]pyridin-1-one]: the inhibition at 10 µM was determined as 99%. Take `O=C1C2=C(CN1c1ccc(OCC(F)(F)F)cc1)C(c1ccc(F)cc1OCC(F)(F)F)=NCCO2` [Example 209, 5-[4-fluoro-2-(2,2,2-trifluoroethoxy)phenyl]-7-[4-(2,2,2-trifluoroethoxy)phenyl]-2,3,6,7-tetrahydro-8H-pyrrolo[3,4-f][1,4]oxazepin-8-one]: the inhibition at 10 µM came out at 98%. Same read-out and setting: to `O=C1c2ccnc(-c3ccncc3OCC(F)(F)F)c2CN1c1ccc(C2(O)CCC2)cc1` [Example 210, 2-[4-(1-hydroxycyclobutyl)phenyl]-4-[3-(2,2,2-trifluoroethoxy)pyridin-4-yl]-2,3-dihydro-1H-pyrrolo[3,4-c]pyridin-1-one] belongs 99%. On the same count and under the same terms, to `O=C1CCCN1Cc1ccc(N2Cc3c(ccnc3-c3ccc(F)cc3OCC(F)(F)F)C2=O)cc1` [Example 211, 4-[4-fluoro-2-(2,2,2-trifluoroethoxy)phenyl]-2-{4-[(2-oxopyrrolidin-1-yl)methyl]phenyl}-2,3-dihydro-1H-pyrrolo[3,4-c]pyridin-1-one] belongs 81%; to `CC(C)(O)c1ccc(N2Cc3c(ccnc3-c3ccc(F)cc3OCC(F)(F)F)C2=O)cc1F` [Example 212, 2-[3-fluoro-4-(2-hydroxypropan-2-yl)phenyl]-4-[4-fluoro-2-(2,2,2-trifluoroethoxy)phenyl]-2,3-dihydro-1H-pyrrolo[3,4-c]pyridin-1-one], 99%; to `O=C1c2ccnc(-c3ccc(F)cc3OCC(F)(F)F)c2CN1c1cnn(CC2(F)CC2)c1` [Example 213, 2-{1-[(1-fluorocyclopropyl)methyl]-1H-pyrazol-4-yl}-4-[4-fluoro-2-(2,2,2-trifluoroethoxy)phenyl]-2,3-dihydro-1H-pyrrolo[3,4-c]pyridin-1-one], 94%. Still for that read-out and setting: in the case of `O=C1c2ccnc(-c3ccccc3OCC(F)(F)F)c2CN1c1ccc(C2(F)COC2)cc1` [Example 214, 2-[4-(3-fluorooxetan-3-yl)phenyl]-4-[2-(2,2,2-trifluoroethoxy)phenyl]-2,3-dihydro-1H-pyrrolo[3,4-c]pyridin-1-one] it was 100%.
